Structures are written as SMILES.

This experiment relates to IFN-γ and IL-4 in plasma. Put plainly: Cytokine content in mouse plasma after intravenous administration of glycolipid (Cytometric Bead Array). The class given is in vivo, C57BL/6 mice. The following applies: tail vein, 100 μg/kg body weight, plasma up to 60 hr (FIG. 1, FIG. 2). Here is the method:
Solutions of each of KRN7000, RCAI-147, RCAI-151, and RCAI-160 in dimethyl sulfoxide (DMSO) at a concentration of 1 mg/mL were prepared. The above-mentioned DMSO solutions were diluted 5-fold with 0.5% Tween 20 (Bio-Rad)-containing phosphate buffer (Invitrogen) and further diluted 20-fold with phosphate buffer, such that the dose became 100 μg/kg body weight when 200 μL was administered per mouse from the tail vein.
To three C57BL/6 mice per group was injected each prepared solution (200 μL) of RCAI-147, RCAI-151 and RCAI-160 into the tail vein (administration of about 2 μg per mouse). As a control substance, KRN7000 was used, and a solution (200 μL) of KRN7000 prepared in the same manner such that the dose became 100 μg/kg body weight was injected into the tail vein. The blood (80 μL) immediately before administration, and after lapse of 1, 3, 6, 12, 24, 32, 48 and 60 hr was collected from orbital plexus venosus, and plasma was prepared.
The content of each cytokine in plasma immediately before and after administration of each glycolipid was measured by Cytometric Bead Array (CBA) system (BD Biosciences) which is one of the ELISA methods.
The measurement results (mean) and standard deviation thereof (STDEV) of the content of IFN-γ in plasma immediately before administration, and after lapse of 3, 6, 12, 24, 32, 48 and 60 hr are shown in FIG. 1. The measurement results (mean) and standard deviation thereof (STDEV) of the content of IL-4 in plasma immediately before administration, and after lapse of 1, 3, 6, 12 and 24 hr from the administration are shown in FIG. 2.
As for `CCCCCCCCCCCCCCCCCCCCCCC[C@@H](O)[C@@H](O)C(=O)N[C@@H](COC1OC(CO)C(O)C(O)C1O)[C@H](O)[C@H](O)[C@@H](O)[C@@H](O)CCCCCCCCCCCC` (stereo partly drawn) [RCAI-147, (2S,3S,4S,5S,6S)-2-[(2′R,3′R)-2′,3′-(dihydroxy)hexacosanoylamino]-3,4,5,6-(tetrahydroxy)octadecyl α-D-galactopyranoside], the “cytokine production induction activity (IFN-γ / IL-4 bias) as compared to KRN7000” value is given as “cytokine production induction activity biased to the IL-4 as compared to KRN7000”.

In the case of `CCCCCCCCCCCCCCCCCCCCCCC[C@@H](O)[C@@H](O)C(=O)N[C@@H](COC1OC(CO)C(O)C(O)C1O)[C@H](O)[C@H](O)CCCCCCCCCCCCCC` (stereo partly drawn) [RCAI-151, (2S,3S,4R)-3,4-dihydroxy-2-[(2′R,3′R)-2′,3′-dihydroxyhexacosanoylamino]octadecyl α-D-galactopyranoside], the “cytokine production induction activity (IFN-γ / IL-4 bias) as compared to KRN7000” value is “cytokine production induction activity biased to the IL-4 as compared to KRN7000”.

As to `CCCCCCCCCCCCCCCCCCCCCC[C@@H](O)[C@@H](O)[C@@H](O)C(=O)N[C@@H](CO[C@H]1O[C@H](CO)[C@H](O)[C@H](O)[C@H]1O)[C@H](O)[C@H](O)CCCCCCCCCCCCCC` [RCAI-160, (2S,3S,4R)-2-[(2′R,3′R,4′R)-2′,3′,4′-trihydroxyhexacosanoyl]amino-3,4-di-hydroxyoctadecyl α-D-galactopyranoside], the “cytokine production induction activity (IFN-γ / IL-4 bias) as compared to KRN7000” value is “cytokine production induction activity biased to the IL-4 as compared to KRN7000”.

These data come from patent US9464105B2, “Hydroxylated KRN7000 analogue and use thereof” (RIKEN, priority 2012, dated 2016).
